What was measured:
Experiment in all cases: Cell proliferation assay (ATPlite), drug with vs without cobicistat
Format in all cases: cell-based
C-33 A = C-33 A cell line; 120 hours incubation
Method: (§1) All cell lines were obtained from the American Type Culture Collection (ATCC) Manassas, Va. (US). Master and working cell banks (MCB and WCB) were prepared by subculturing in ATCC-recommended media and freezing protocols (www.atcc.org). Cell line stocks for the assays were prepared from the WCB. The MCB, WCBs and assay stocks were prepared within respectively 3, 6 and 9 passages of the ATCC vial.
(§2) Solid powders of reference compounds were weighed on a calibrated balance and dissolved in 100% DMSO. DMSO samples were stored at room temperature. At the day of the experiment, the compound stock was diluted in 3.16 fold steps in 100% DMSO to obtain a 9-point dilution series. This was further diluted 31.6 times in 20 mM sterile Hepes buffer pH 7.4. A volume of 5 μl was transferred to the cells to generate a test concentration range from 3.16×10^−5M to 3.16×10^−9 M in duplicate. The final DMSO concentration during incubation was […] in all wells.
(§3) An assay stock was thawed and diluted in its ATCC recommended medium and dispensed in a 384-well plate, depending on the cell line used, at a concentration of 200-3200 cells per well in 45 μl medium. For each used cell line the optimal cell density is used. The margins of the plate were filled with phosphate-buffered saline. Plated cells were incubated in a humidified atmosphere of 5% CO2 at 37° C. After 24 hours, 5 μl of compound dilution was added and plates were further incubated for another 120 hours. After 120 hours, 25 μl of ATPlite 1Step™ (PerkinElmer) solution was added to each well, and subsequently shaken for 2 minutes. After 10 minutes of incubation in the dark, the luminescence was recorded on an Envision multimode reader (PerkinElmer).
(§4) IC50s were calculated by non-linear regression using IDBS XLfit 5. The percentage growth after 120 h (%-growth) was calculated as follows: 100%×(luminescencet=120h/luminescenceuntreated,t=120h). This was fitted to the ^10log compound concentration (conc) by a 4-parameter logistics curve: %−growth=bottom+(top−bottom)/(1+10^(log IC50-conc)*hill)), where hill is the Hill-coefficient, and bottom and top the asymptotic minimum and maximum cell growth that the compound allows in that assay.

U-2 OS = U-2 OS cell line; 120 hours incubation
Method: as §1, §2, §3, §4

LNCaP FGC = LNCaP FGC cell line; 120 hours incubation
Method: as §1, §2, §3, §4

SHP-77 = SHP-77 cell line; 120 hours incubation
Method: as §1, §2, §3, §4

BT-20 = BT-20 cell line; 120 hours incubation
Method: as §1, §2, §3, §4

T24 = T24 cell line; 120 hours incubation
Method: as §1, §2, §3, §4

MOLT-4 = MOLT-4 cell line; 120 hours incubation
Method: as §1, §2, §3, §4

NCI-H82 = NCI-H82 cell line; 120 hours incubation
Method: as §1, §2, §3, §4

Daoy = Daoy cell line; 120 hours incubation
Method: as §1, §2, §3, §4

RT4 = RT4 cell line; 120 hours incubation
Method: as §1, §2, §3, §4

MCF7 = MCF7 cell line; 120 hours incubation
Method: as §1, §2, §3, §4

SW480 = SW480 cell line; 120 hours incubation
Method: as §1, §2, §3, §4

FaDu = FaDu cell line; 120 hours incubation
Method: as §1, §2, §3, §4

SW948 = SW948 cell line; 120 hours incubation
Method: as §1, §2, §3, §4

J82 = J82 cell line; 120 hours incubation
Method: as §1, §2, §3, §4

AsPC-1 = AsPC-1 cell line; 120 hours incubation
Method: as §1, §2, §3, §4

A388 = A388 cell line; 120 hours incubation
Method: as §1, §2, §3, §4

VA-ES-BJ = VA-ES-BJ cell line; 120 hours incubation
Method: as §1, §2, §3, §4

DU 145 = DU 145 cell line; 120 hours incubation
Method: as §1, §2, §3, §4

A-498 = A-498 cell line; 120 hours incubation
Method: as §1, §2, §3, §4

CAL 27 = CAL 27 cell line; 120 hours incubation
Method: as §1, §2, §3, §4

SNU-C2B = SNU-C2B cell line; 120 hours incubation
Method: as §1, §2, §3, §4

BxPC-3 = BxPC-3 cell line; 120 hours incubation
Method: as §1, §2, §3, §4

SW620 = SW620 cell line; 120 hours incubation
Method: as §1, §2, §3, §4

KU812 = KU812 cell line; 120 hours incubation
Method: as §1, §2, §3, §4

SK-N-AS = SK-N-AS cell line; 120 hours incubation
Method: as §1, §2, §3, §4

DoTc2 4510 = DoTc2 4510 cell line; 120 hours incubation
Method: as §1, §2, §3, §4

MIA PaCa-2 = MIA PaCa-2 cell line; 120 hours incubation
Method: as §1, §2, §3, §4

CCRF-CEM = CCRF-CEM cell line; 120 hours incubation
Method: as §1, §2, §3, §4

A-172 = A-172 cell line; 120 hours incubation
Method: as §1, §2, §3, §4

Row | SMILES | Fold change in IC50 (IC50 [Drug + Cobicistat]/IC50 [Drug]) (C-33 A) | Fold change in IC50 (IC50 [Drug + Cobicistat]/IC50 [Drug]) (U-2 OS) | Fold change in IC50 (IC50 [Drug + Cobicistat]/IC50 [Drug]) (LNCaP FGC) | Fold change in IC50 (IC50 [Drug + Cobicistat]/IC50 [Drug]) (SHP-77) | Fold change in IC50 (IC50 [Drug + Cobicistat]/IC50 [Drug]) (BT-20) | Fold change in IC50 (IC50 [Drug + Cobicistat]/IC50 [Drug]) (T24) | Fold change in IC50 (IC50 [Drug + Cobicistat]/IC50 [Drug]) (MOLT-4) | Fold change in IC50 (IC50 [Drug + Cobicistat]/IC50 [Drug]) (NCI-H82) | Fold change in IC50 (IC50 [Drug + Cobicistat]/IC50 [Drug]) (Daoy) | Fold change in IC50 (IC50 [Drug + Cobicistat]/IC50 [Drug]) (RT4) | Fold change in IC50 (IC50 [Drug + Cobicistat]/IC50 [Drug]) (MCF7) | Fold change in IC50 (IC50 [Drug + Cobicistat]/IC50 [Drug]) (SW480) | Fold change in IC50 (IC50 [Drug + Cobicistat]/IC50 [Drug]) (FaDu) | Fold change in IC50 (IC50 [Drug + Cobicistat]/IC50 [Drug]) (SW948) | Fold change in IC50 (IC50 [Drug + Cobicistat]/IC50 [Drug]) (J82) | Fold change in IC50 (IC50 [Drug + Cobicistat]/IC50 [Drug]) (AsPC-1) | Fold change in IC50 (IC50 [Drug + Cobicistat]/IC50 [Drug]) (A388) | Fold change in IC50 (IC50 [Drug + Cobicistat]/IC50 [Drug]) (VA-ES-BJ) | Fold change in IC50 (IC50 [Drug + Cobicistat]/IC50 [Drug]) (DU 145) | Fold change in IC50 (IC50 [Drug + Cobicistat]/IC50 [Drug]) (A-498) | also measured
1 | Cc1nc(Nc2ncc(C(=O)Nc3c(C)cccc3Cl)s2)cc(N2CCN(CCO)CC2)n1 [dasatinib] | 1.2 fold | 4.0 fold | 1.3 fold | 1.4 fold | 1.4 fold | 3.9 fold | 1.1 fold | 1.1 fold | 3.2 fold | 2.5 fold | 1.9 fold | 1.0 fold | 2.1 fold | 1.2 fold | 2.1 fold | 1.2 fold | 1.9 fold | 3.1 fold | 3.6 fold | 1.4 fold | Fold change in IC50 (IC50 [Drug + Cobicistat]/IC50 [Drug]) (CAL 27): 1.3 fold; Fold change in IC50 (IC50 [Drug + Cobicistat]/IC50 [Drug]) (SNU-C2B): 0.9 fold; Fold change in IC50 (IC50 [Drug + Cobicistat]/IC50 [Drug]) (BxPC-3): 2.2 fold; Fold change in IC50 (IC50 [Drug + Cobicistat]/IC50 [Drug]) (SW620): 3.2 fold; Fold change in IC50 (IC50 [Drug + Cobicistat]/IC50 [Drug]) (KU812): 1.5 fold; Fold change in IC50 (IC50 [Drug + Cobicistat]/IC50 [Drug]) (SK-N-AS): 1.6 fold; Fold change in IC50 (IC50 [Drug + Cobicistat]/IC50 [Drug]) (DoTc2 4510): 3.0 fold; Fold change in IC50 (IC50 [Drug + Cobicistat]/IC50 [Drug]) (MIA PaCa-2): 2.2 fold; Fold change in IC50 (IC50 [Drug + Cobicistat]/IC50 [Drug]) (CCRF-CEM): 1.3 fold; Fold change in IC50 (IC50 [Drug + Cobicistat]/IC50 [Drug]) (A-172): 1.7 fold
2 | CC(=O)O[C@@]12CO[C@@H]1C[C@H](O)[C@@]1(C)C(=O)[C@H](O)C3=C(C)[C@@H](OC(=O)[C@H](O)[C@@H](NC(=O)OC(C)(C)C)c4ccccc4)C[C@@](O)([C@@H](OC(=O)c4ccccc4)[C@H]21)C3(C)C [docetaxel] | 1.5 fold | 4.3 fold | 3.8 fold | 3.5 fold | 1.7 fold | 6.3 fold | 1.7 fold | 2.2 fold | 6.4 fold | 4.4 fold | 4.1 fold | 2.3 fold | 1.7 fold | 3.5 fold | 3.5 fold | 5.0 fold | 6.0 fold | 5.0 fold | 4.8 fold | 4.2 fold | Fold change in IC50 (IC50 [Drug + Cobicistat]/IC50 [Drug]) (CAL 27): 1.4 fold; Fold change in IC50 (IC50 [Drug + Cobicistat]/IC50 [Drug]) (SNU-C2B): 4.8 fold; Fold change in IC50 (IC50 [Drug + Cobicistat]/IC50 [Drug]) (BxPC-3): 3.0 fold; Fold change in IC50 (IC50 [Drug + Cobicistat]/IC50 [Drug]) (SW620): 2.7 fold; Fold change in IC50 (IC50 [Drug + Cobicistat]/IC50 [Drug]) (KU812): 5.6 fold; Fold change in IC50 (IC50 [Drug + Cobicistat]/IC50 [Drug]) (SK-N-AS): 3.3 fold; Fold change in IC50 (IC50 [Drug + Cobicistat]/IC50 [Drug]) (DoTc2 4510): 5.3 fold; Fold change in IC50 (IC50 [Drug + Cobicistat]/IC50 [Drug]) (MIA PaCa-2): 4.2 fold; Fold change in IC50 (IC50 [Drug + Cobicistat]/IC50 [Drug]) (CCRF-CEM): 3.6 fold; Fold change in IC50 (IC50 [Drug + Cobicistat]/IC50 [Drug]) (A-172): 2.0 fold
3 | COc1cccc2c1C(=O)c1c(O)c3c(c(O)c1C2=O)C[C@@](O)(C(=O)CO)C[C@@H]3O[C@H]1C[C@H](N)[C@H](O)[C@H](C)O1 [doxorubicin] | 1.9 fold | 3.0 fold | 1.8 fold | 2.5 fold | 1.0 fold | 1.8 fold | 1.9 fold | 2.6 fold | 1.6 fold | 2.7 fold | 1.9 fold | 2.5 fold | 1.7 fold | 2.5 fold | 2.2 fold | 1.3 fold | 1.7 fold | 2.8 fold | 2.1 fold | 1.2 fold | Fold change in IC50 (IC50 [Drug + Cobicistat]/IC50 [Drug]) (CAL 27): 1.9 fold; Fold change in IC50 (IC50 [Drug + Cobicistat]/IC50 [Drug]) (SNU-C2B): 1.2 fold; Fold change in IC50 (IC50 [Drug + Cobicistat]/IC50 [Drug]) (BxPC-3): 2.2 fold; Fold change in IC50 (IC50 [Drug + Cobicistat]/IC50 [Drug]) (SW620): 2.6 fold; Fold change in IC50 (IC50 [Drug + Cobicistat]/IC50 [Drug]) (KU812): 2.9 fold; Fold change in IC50 (IC50 [Drug + Cobicistat]/IC50 [Drug]) (SK-N-AS): 2.3 fold; Fold change in IC50 (IC50 [Drug + Cobicistat]/IC50 [Drug]) (DoTc2 4510): 1.7 fold; Fold change in IC50 (IC50 [Drug + Cobicistat]/IC50 [Drug]) (MIA PaCa-2): 2.2 fold; Fold change in IC50 (IC50 [Drug + Cobicistat]/IC50 [Drug]) (CCRF-CEM): 2.7 fold; Fold change in IC50 (IC50 [Drug + Cobicistat]/IC50 [Drug]) (A-172): 2.5 fold

From patent US20180036289A1 (Gilead Sciences, Inc., priority 2016, published 2018)
